According to patent EP0029617A1, “Use of tertiary heterocyclic amines as synergists in pesticides; derivatives of cycloamines” (priority 1979, dated 1981):
Like-named read-outs stand apart in the source and are kept apart here.

What was measured:
Drosophila melanogaster = test: whole plant or invertebrate; assay type: in vivo
Excerpt: Die insektiziden Wirkungen von tertiären heterocyclischen Aminen und die synergistischen Eigenschaften mit dem Phosphorsäureester Dimethoat und dem Carbamat Dimetilan, getestet an Drosophila melanogaster.
Die Versuche wurden in Petrischalen von 10 cm Durchmesser ausgeführt. Es wurden zunächst die gerade noch wirksamen Konzentrationen von Dimethoat und Dimetilan bestimmt. Für Dimethoat wurde 0,005 % und für Dimetilan 0,0001 % als günstige Versuchskonzentration ermittelt. Die Aminkomponente wurde mit 1 ml 0,05%iger Lösung + 1 ml Aceton auf insektizide Wirkung getestet. Zur Bestimmung des Synergismus wurde 1 ml 0,05%ige Aminlösung + 1 ml 0,005.%ige Dimethoatlösung, bzw. + 1 ml 0,0001%ige Dimetilanlösung pro Petrischale eingesetzt. Alle Verdünnungen wurden mit Aceton als Lösungsmittel hergestellt.
In den Petrischalen wurden die Lösungen am Boden gut verteilt und 30 min lang antrocknen lassen. In jede Petrischale wurden 20 mit Kohlendioxid betäubte Drosophila eingezählt. Alle 5 min, insgesamt 12 mal, wurde die Anzahl der toten Drosophila ausgezählt und notiert. Die Zahlen wurden aufsummiert und im Verhältnis zur möglichen Zahl an toten Drosophila in % angegeben, wobei der Tot aller Drosophila innerhalb der ersten 5 min 100 % Wirkung entspricht. Jeder Versuch wurde mit 3 Wiederholungen durchgeführt. In Tabelle 1 sind die Mittelwerte der Ergebnisse zusammengestellt.
Zur Ermittlung des synergistischen Faktors wurden die Einzelwerte pro Zeiteinheit durch die für Dimethoat, bzw. Dimetilan für die jeweilige Zeiteinheit gefundenen Werte dividiert. Die Werte für jede Zeiteinheit wurden summiert und durch die Anzahl der Zeiteinheiten dividiert. Die Versuche wurden bei sonst stets gleichbleibenden Bedingungen bei Temperaturen von 20 - 22°C ausgeführt. Die Kontrollversuche zeigten bei Versuchsabschluß stets 0 % Mortalität. Hat die Substanz selbst eine insektizide Wirkung, so wurden die Wirkungsfaktoren für Dimethoat und Dimetilan nach Abzug des Substanzwertes berechnet und in der Tabelle aufgeführt.
Im Beispiel 1 war das Verhältnis von Insektizid und erfindungsgemäßem Amin 1 : 10 in den Gemischen mit Dimethoat. In der Tabelle 2 sind Verhältnisse von 1 : 1, 1 : 2 und 1 : 0,2 bei Versuchen mit Dimethoat aufgeführt, dabei wurde das Dimethoat immer in einer Konzentation von 0,005 % eingesetzt. Die Tabelle zeigt, daß auch bei diesen Verhältnissen noch eine gute synergistische Wirkung vorhanden ist, und es keineswegs einer großen überdosierung des Amins bedarf.

[1] = tested on: Kornkäfer (sitophilus granarius L); test: whole plant or invertebrate; assay type: in vivo; conditions: for % Wirkung Substanz +Ripcord / % Wirkung Substanz +Talcord: 180 min; for mortality at 100 µg/mL / mortality at 50 µg/mL / mortality at 1000 µg/mL: Sitophilus granarius; for mortality at 100 µg/mL: amine 0,1 mg/ml (as for Pyrethroid : Amin 1 : 10); for mortality at 100 µg/mL / mortality at 50 µg/mL: read-out: % Wirkung Substanz allein; for mortality at 50 µg/mL: amine 0,05 mg/ml (as for Pyrethroid : Amin 1 : 5); for mortality at 1000 µg/mL: read-out: Wirksamkeit in % Substanz allein
How it was run: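 Acetone solutions (2 ml) were dried as films in 15 cm Petri dishes and 25 grain weevils added per dish, with a filter inserted after 1 h. Dead beetles were counted at 3 h at 19–21 °C, and % mortality and the synergistic factor were derived.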

[2] = Acute oral toxicity, single oral application, 14 day LD50; set-up: species or system SPF-Wistar-Ratten; conditions: rat, in vivo, read-out: 14 Tage LD50
Excerpt: Die erfindungsgemäßen Verbindungen haben nur eine geringe Toxizität. Es wurde die akute, orale Toxizität von Phenyl-N-piperidino-essigsäure-ethylester und 1-N-Undecyl-piperidin bestimmt. Die Tests wurden mit SPF-Wistar-Ratten durchgeführt und die Wirkstoffe einmal oral appliziert.

[3] = 1 ml 0,05%ige amine solution + 1 ml 0,0001%ige Dimetilan solution
[4] = 1 ml 0,05%ige amine solution + 1 ml 0,005 %ige Dimethoat solution (Dimethoat : amine 1 : 10)
[5] = Drosophila melanogaster, 1 ml 0,05%ige amine solution + 1 ml Aceton per dish, 20 flies, dead counted every 5 min, 12 times, mean values, read-out: Wirksamkeit in % Substanz allein
[6] = Drosophila melanogaster, amine 0,05 %, read-out: Sub-stanz allein
[7] = amine 0,05 % + Dimethoat 0,005 %, Dimethoat : Amin 1 : 10
[8] = amine 0,05 % + Dimethoat 0,005 %, calculated after subtracting the amine's own effect
[9] = amine 0,05 %, Dimethoat : Amin 1 : 10
[10] = Pyrethroid : Amin 1 : 10, amine 0,1 mg/ml
[11] = 1 ml 0,05%ige amine solution + 1 ml Aceton per dish, 20 flies, dead counted every 5 min, 12 times, mean values
[12] = amine 1 mg/ml + Ripcord 0,01 mg/ml
[13] = amine 1 mg/ml + Talcord 0,01 mg/ml
[14] = amine 1 mg/ml in Aceton mixed 1 : 1 with Aceton, 2 ml per dish, 25 weevils, dead counted after 3 h
[15] = amine 1 mg/ml mixed 1 : 1 with Ripcord 0,01 mg/ml, 3 h
[16] = amine 1 mg/ml mixed 1 : 1 with Talcord 0,01 mg/ml, 3 h
[17] = amine 0,05 % + Dimetilan 0,0001 %, calculated after subtracting the amine's own effect
[18] = Drosophila melanogaster, amine 0,005 %, read-out: Sub-stanz allein
[19] = amine 0,005 % + Dimethoat 0,005 %, Dimethoat : Amin 1 : 1
[20] = amine 0,005 %, Dimethoat : Amin 1 : 1
[21] = Pyrethroid : Amin 1 : 5, amine 0,05 mg/ml
[22] = drosophila melanogaster, in vivo
[23] = sitophilus granarius, in vivo, 3 h

Row | SMILES | Wirksamkeit in % Substanz +Dimeti-lan (Drosophila melanogaster; [3]) | Wirksamkeit in % Substanz +Dimethoat (Drosophila melanogaster; [4]) | mortality at 0.05 % (Drosophila melanogaster; [5]) | Faktor der Wirkungssteigerung bei Dime-methoat (Drosophila melanogaster; [8]) | % Wirkung Substanz +Ripcord [1, 10] | % Wirkung Substanz +Talcord [1, 10] | mortality at 100 µg/mL ([1]; 3 h) | Synergistischer Faktor bei Ripcord [1, 12] | Synergistischer Faktor bei Talcord [1, 13] | Wirksamkeit in % Substanz +Ripcord [1, 15] | Wirksamkeit in % Substanz +Talcord [1, 16] | mortality at 1000 µg/mL [1, 14] | also measured
1 | CCOC(=O)C(c1ccccc1)N1CCCCC1 (centres unmarked) [Phenyl-N-piperidino-essigsäure-ethylester] | 2,7% | 22,2% | 0% | 2,57 | 98,8% | 50,8% | 0% |  |  |  |  |  | mortality at 0.01 % (Drosophila melanogaster; Drosophila melanogaster, amine 0,01 %, read-out: Sub-stanz allein): 0%; mortality at 0.05 % (Drosophila melanogaster; [6]): 0%; Substanz + Dime-thoat (Drosophila melanogaster; amine 0,01 % + Dimethoat 0,005 %, Dimethoat : Amin 1 : 2): 59,2%; Faktor der Wirkungs-steigerung (Drosophila melanogaster; amine 0,01 %, Dimethoat : Amin 1 : 2): 6,88; Substanz + Dime-thoat (Drosophila melanogaster; [7]): 22,1%; Faktor der Wirkungs-steigerung (Drosophila melanogaster; [9]): 2,57; Synergistischer Faktor bei Ripcord ([1]; Pyrethroid : Amin 1 : 10): 3,14; Synergistischer Faktor bei Talcord ([1]; Pyrethroid : Amin 1 : 10): 5,24; LD50 at 336 h ([2]; männliche Ratten): 9750 mg/kg; LD50 at 336 h ([2]; weibliche Ratten): 8170 mg/kg
2 | CCOC(=O)CC(C(=O)OCC)N1CCCCC1 (centres unmarked) [N-Piperidino-bernstein-säure-di-ethylester] | 2,3% | 38,8% |  | 4,51 |  |  |  | 3,08 | 2,47 | 97,2% | 24,0% |  | Wirksamkeit in % Substanz allein (Drosophila melanogaster; [11]): 0%; Wirksamkeit in % Substanz allein [1, 14]: 0%
3 | C(CCCCN1CCOCC1)CCCN1CCOCC1 [1,8-N,N-Dimorpholino-octan] | 10,4% | 23,8% |  | 2,62 |  |  |  | 1,56 |  | 93,2% | 50,8% |  | Wirksamkeit in % Substanz allein (Drosophila melanogaster; [11]): 1,3%; Faktor der Wirkungssteigerung bei Dimi-tilan (Drosophila melanogaster; [17]): 3,64; Wirksamkeit in % Substanz allein [1, 14]: 44,0%
4 | c1cc2c(cc1CN1CCCCC1)OCO2 [N-Piperonyl-piperidin] | 52,1% | 65,0% | 51.7% | 1,55 | 74,8% | 24,0% | 0% |  |  | 90,8% | 64,0% | 0% | mortality at 0.05 % (Drosophila melanogaster; [6]): 28.8%; mortality at 0.005 % (Drosophila melanogaster; [18]): 0%; Substanz + Dime-thoat (Drosophila melanogaster; [7]): 60,0%; Faktor der Wirkungs-steigerung (Drosophila melanogaster; [9]): 3,63; Substanz + Dime-thoat (Drosophila melanogaster; [19]): 26,3%; Faktor der Wirkungs-steigerung (Drosophila melanogaster; [20]): 3,06; % Wirkung Substanz +Ripcord [1, 21]: 84,0%; % Wirkung Substanz +Talcord [1, 21]: 54,8%; mortality at 50 µg/mL ([1]; 3 h): 0%
5 | C(=Cc1ccccc1)CN1CCCC1 [1-Cinnamyl-pyrrolidin] | 55,4% | 5,8% | 0% |  |  |  |  | 3,08 | 3,17 | 97,2% | 30,8% | 0% | Faktor der Wirkungssteigerung bei Dimi-tilan (Drosophila melanogaster; [17]): 22,2
6 | CCCCOC(CN1CCOCC1)OCCCC [2-N-Morpholino-ethyl-di-butyl-acetal] |  |  |  |  |  |  |  |  |  |  |  |  | Wirksamkeit in % Substanz +Dimethoat (Drosophila melanogaster; [22]): 17,9%; Wirksamkeit in % Substanz +Dimeti-lan (Drosophila melanogaster; [22]): 3,3%; Wirksamkeit in % Substanz allein (Drosophila melanogaster; [22]): 0,4%; Faktor der Wirkungssteigerung bei Dime-methoat (Drosophila melanogaster; in vivo): 2,03; Faktor der Wirkungssteigerung bei Dimi-tilan (Drosophila melanogaster; in vivo): 1,16; Synergistischer Faktor bei Ripcord ([1]; in vivo): 3,17; Synergistischer Faktor bei Talcord ([1]; in vivo): 10,31; Wirksamkeit in % Substanz +Ripcord [1, 23]: 100%; Wirksamkeit in % Substanz +Talcord [1, 23]: 100%; Wirksamkeit in % Substanz allein [1, 23]: 0%
7 | CCCCCCCCCCCN1CCCCC1 [N-1-Undecyl-piperidin] |  |  |  |  | 97,2% | 60,0% | 0% |  |  |  |  |  | % Wirkung Substanz +Ripcord [1, 21]: 90,8%; % Wirkung Substanz +Talcord [1, 21]: 53,2%; mortality at 50 µg/mL ([1]; 3 h): 0%; LD50 at 336 h ([2]; männliche Ratten): 593 mg/kg; LD50 at 336 h ([2]; weibliche Ratten): 493 mg/kg
8 | CC(C)=CCCC(C)CCN1CCCCC1 (centres unmarked) [N-Citronellyl-piperidin] |  |  |  |  |  |  |  | 2,46 | 5,53 | 78,8% | 54,8% | 1.2% | mortality at 0.001 % (Drosophila melanogaster; Drosophila melanogaster, amine 0,001 %, read-out: Sub-stanz allein): 0%; mortality at 0.005 % (Drosophila melanogaster; [18]): 0%; Substanz + Dime-thoat (Drosophila melanogaster; amine 0,001 % + Dimethoat 0,005 %, Dimethoat : Amin 1 : 0,2): 30,4%; Faktor der Wirkungs-steigerung (Drosophila melanogaster; amine 0,001 %, Dimethoat : Amin 1 : 0,2): 3,53; Substanz + Dime-thoat (Drosophila melanogaster; [19]): 32,9%; Faktor der Wirkungs-steigerung (Drosophila melanogaster; [20]): 3,83
